Source: PMC7406636, “In vivo and in silico characterization of apocynin in reducing organ oxidative stress: A pharmacokinetic and pharmacodynamic study” (Pharmacology Research & Perspectives, 2020)
Read-outs that look alike come from different tables or passages of the source.

Columns and labels:
[1] = Apocynin in organs after 16 weeks in drinking water, HFD mouse model (HPLC-MS/MS); format: in vivo; conditions: male, oral, C57BL/6J mice, HFD 16 weeks, apocynin 5 mmol/L in drinking water
From the text: The mouse model of high‐fat diet (HFD‐induced metabolic disorders and accelerated aging was established as described previously. ^8 Littermates of WT and Nox2KO mice (Jackson Laboratory) on a C57BL/6J background at 7 months of age were randomly assigned (n = 6/per group) to a HFD containing 45% kcal fat (Special Diets Services), or to a normal chow diet (NCD) containing 9.3% kcal fat (LabDiet Ltd) for 16 weeks. Apocynin was supplied in drinking water (5 mmol/L) for the treatment group. Body weights were measured weekly. Mice were sacrificed at 11 months of age and organs were harvested for further experiments.
(§1) The detection of apocynin in tissue sample was performed as described previously with some modifications. ^17 In brief, apocynin was detected using an Accela HPLC coupled to a linear ion‐trap tandem mass spectrometry (LTQ‐Orbitrap XL; Thermo‐Fisher Scientific) (HPLC‐MS/MS) in the negative ion mode. Phenacetin (500 ng/mL) was used as an internal standard in every vial. A reversed‐phase 50 × 2.1 mm ID, […], 175 Å pore C18 Hypersil Gold column (Thermo Scientific) was used with injection volume set at 5 µL for the separation of apocynin and phenacetin. Calibration curve used for PK analysis was constructed by spiking apocynin in mouse plasma using eight calibrators ranging from 1 to 10000 ng/mL with great reproducibility and R ^2 ≥ 0.996 for subsequent 5 separate experiments on different days. […] Limit of detection for apocynin was set up at signal to noise ratio ≥ 3, ^18 which is 1 ng/mL in our system. The limitation of quantification was set up at signal to noise ratio ≥ 10, which is 10 ng/mL in our system. Orbitrap component was used for the full scan spectra of apocynin and diapocynin.
The HFD study was performed exactly as described previously. ^8 Littermates of WT and Nox2KO mice on a C57BL/6J background (Jackson Laboratory, USA) were bred in our institution from heterozygotes and genotyped. […] Body weights were measured weekly. […] The body weights were recorded and organs were harvested.

[2] = Time-dependent distribution of apocynin in plasma, urine and tissues after iv bolus injection (HPLC-MS/MS); format: in vivo, mouse
Experimental: All studies were performed in accordance with the protocols approved by the Home Office under the Animals (Scientific Procedures) Act 1986, UK. For the PKPD study, male CD1 mice (Charles River Ltd) at 12 weeks of age with a body weight range between 25 and 30 g were used for the study. Mice were fasted 12 hours before bolus iv injection of apocynin at 5 mg/kg body weight (dosing volume 5 mL/kg) via a lateral tail vein. Control mice were injected with vehicle (solvent of apocynin) at each time points. Four mice/per time points were sacrificed at 0, 1, 2.5, 5, 15, 30, 60 minutes and then at 3, 6, 12, and 24 hours after iv injection of apocynin. Blood samples were collected and centrifuged at 2000 g, 4°C for 10 minutes for plasma collection. Urine samples were collected from bladders. Tissues were harvested for further experiments.
as §1

[3] = system: O2·‐ production in tissue homogenates; assay: O2·- production in organ homogenates by lucigenin-chemiluminescence, HFD mouse model; format: in vivo; conditions: HFD 16 weeks, apocynin 5 mmol/L in drinking water, vs HFD
Experimental: Apocynin was supplied in drinking water (5 mmol/L) for the treatment group. Body weights were measured weekly. Mice were sacrificed at 11 months of age and organs were harvested for further experiments. ROS production was measured using tissue homogenates by three complementary techniques: lucigenin (5 µmol/L)‐chemiluminescence (Molecular Devices); DHE (2 µmol/L) fluorescence on brain tissue sections, and brain tissue lipid peroxidation by malondialdehyde (MDA) assay as described previously. ^5 The specificity of detection of O2·‐ was confirmed by adding tiron (10 mmol/L), a non‐enzymatic O2·‐ scavenger. The enzymatic sources of O2·‐ production were identified using inhibitors targeting nitric oxide synthase (L‐N^G‐Nitro arginine methyl ester, L‐NAME, 100 μmol/L), the mitochondrial complex‐1 enzymes (rotenone, 50 μmol/L), xanthine oxidase (oxypurinol, 250 μmol/L), flavo‐proteins (diphenyleneiodonium, DPI, 20 μmol/L), or superoxide dismutase (SOD) (200 U/mL). The DHE fluorescence was captured using a Nikon fluorescence microscope (Eclipse Ti2‐E). The fluorescence intensity was quantified from at least three random images per section with three sections/per sample. […] Body weights were measured weekly. […] The body weights were recorded and organs were harvested.

[4] = PK simulation and model analysis using Phoenix WinNonlin 8.1 (non-compartmental and compartmental); format: in vivo; conditions: CD1, mouse, plasma; for AUC / clearance / Vd: iv, 5 mg/kg
Experimental: PK parameters simulation was performed using the Phoenix WinNonlin 8.1 software (Certara.com). […] Data collected from sampling time 1‐360 minutes after iv injection were then pooled (n = 3) and tested against various compartmental models for a best fit using Phoenix WinNonlin 8.1 software. Parameters included the Akaike's information criterion (AIC), Bayesian information criteria (BIC) and corrected AIC (AICc) calculated using the equation: AICc = AIC +2 × nParm (nParm + 1)/(nObs − nParm − 1). ^21

[5] = CD1 mice, iv bolus 5 mg/kg, 5 minutes, per tissue weight

Work on `COc1cc(C(C)=O)ccc1O` [Apocynin, 4‐hydroxy‐3‐methoxyacetophenone] yielded a concentration at 16 weeks ([1]; brain, read-out: brain apocynin concentration at end of treatment) of 5370 ± 1610 ng/g, a concentration at 16 weeks ([1]; heart, read-out: heart apocynin concentration at end of treatment) of 1800 ± 1490 ng/g and a concentration at 16 weeks ([1]; liver, read-out: liver apocynin concentration at end of treatment) of 4820 ± 1340 ng/g. For the same compound, the “time apocynin remained detectable in urine” value ([2]; CD1 mice, iv bolus 5 mg/kg) was “up to 12 hours”, the “plasma apocynin concentration (peak)” value ([2]; CD1 mice, iv bolus 5 mg/kg, 1 minute after injection) was 5494 ± 400 ng/mL and the “brain apocynin concentration (peak)” value ([2]; CD1 mice, iv bolus 5 mg/kg, 1 minute, per tissue weight) was 4603 ± 208 ng/g. For the same compound, the “heart apocynin peak concentration” value [2, 5] was 3161 ± 309 ng/g, the “liver apocynin peak concentration” value [2, 5] was 2853 ± 35 ng/g and the “urine apocynin peak concentration” value ([2]; CD1 mice, iv bolus 5 mg/kg, at 30 minutes) was 20492 ng/mL. The “apocynin detection in urine” value ([2]; CD1 mice, iv bolus 5 mg/kg, until 5 minutes after injection) was “undetectable”, the “half-life in the brain compared with plasma” value ([2]; after iv injection) was “longer” and the renal clearance ([2]; after iv injection) was “high”. It also gave a concentration at 30 min ([2]; male, mouse, brain, CD1 mice, iv bolus 5 mg/kg, read-out: brain apocynin concentration) of 103 ± 4 ng/g, a concentration at 5 min ([2]; male, mouse, plasma, CD1 mice, iv bolus 5 mg/kg, 5 minutes) of 3240 ± 1560 ng/mL and a concentration at 15 min ([2]; male, mouse, plasma, CD1 mice, iv bolus 5 mg/kg, 15 minutes) of ~50 ng/mL. The concentration at 30 min ([2]; male, mouse, plasma, CD1 mice, iv bolus 5 mg/kg, read-out: plasma apocynin concentration) was ~10 ng/mL, the concentration at 3 h ([2]; male, mouse, urine, CD1 mice, iv bolus 5 mg/kg, 3 hours) was 230 ± 31 ng/mL and the “effect on HFD-induced ROS production / oxidative stress in brain, liver and heart” value [3] was “significant reductions”. The “effect on HFD-induced ROS production / oxidative stress in brain, liver and heart” value ([3]; listed as apocynin) was “reduced significantly”, the k el ([4]; NCA, iv 5 mg/kg, n = 3, read-out: Kel (elimination rate constant) (converted)) was 0.00379 s⁻¹ and the half-life ([4]; NCA, iv 5 mg/kg, n = 3, read-out: t 1/2 (terminal half-life, plasma) (converted)) was 3 min. The AUC ([4]; male, 1-CA (one compartmental analysis), 0-6 h, read-out: AUC0‐∞) was 681 ng·h/mL, the clearance ([4]; male, 1-CA, 0-6 h, read-out: tvCL1 (typical value of compartmental clearance) (converted)) was 92.4 mL/min and the Vd ([4]; male, 1-CA, 0-6 h, read-out: tvV1 (typical value of compartmental volume of distribution)) was 0.531 L. It also gave an AUC ([4]; male, 2-CA (two compartmental analysis), 0-6 h, read-out: AUC0‐∞) of 711 ng·h/mL, a clearance ([4]; male, 2-CA, 0-6 h, read-out: tvCL1 (typical value of compartmental clearance) (converted)) of 92.3 mL/min and a Vd ([4]; male, 2-CA, 0-6 h, read-out: tvV1 (typical value of compartmental volume of distribution)) of 0.531 L. For the same compound, the AUC ([4]; male, 3-CA (three compartmental analysis), 0-6 h, read-out: AUC0‐∞) was 711 ng·h/mL, the clearance ([4]; male, 3-CA, 0-6 h, read-out: tvCL1 (typical value of compartmental clearance) (converted)) was 92 mL/min and the Vd ([4]; male, 3-CA, 0-6 h, read-out: tvV1 (typical value of compartmental volume of distribution)) was 0.531 L. For the same compound, the AUC ([4]; male, NCA, iv 5 mg/kg, n = 3, read-out: AUC0‐30min) was 643 ng·h/mL, the AUC ([4]; male, NCA, iv 5 mg/kg, n = 3, read-out: AUC0‐∞) was 644 ng·h/mL and the clearance ([4]; male, NCA, iv 5 mg/kg, n = 3, read-out: CL (clearance) (converted)) was 129 mL/min/kg. It also gave a Vd ([4]; male, NCA, iv 5 mg/kg, n = 3, read-out: V d (central volume of distribution)) of 0.569 L/kg, a clearance ([4]; male, NCA, iv 5 mg/kg, read-out: CL (systemic clearance) (converted)) of 129 mL/min/kg and a C0 ([4]; male, NCA, 0-30 min, iv 5 mg/kg, n = 3, read-out: C 0 (extrapolated plasma concentration at time 0)) of 7360 ng/mL. It also gave a Cmax ([4]; male, NCA, 0-30 min, iv 5 mg/kg, n = 3, read-out: C max (maximum plasma concentration)) of 5490 ng/mL.
